From paper PMC4513294, “L-Asparaginase from Streptomyces griseus NIOT-VKMA29: optimization of process variables using factorial designs and molecular characterization of L-asparaginase gene” (Scientific Reports, 2015)

Target: T1, L-asparaginase (ansA) (Streptomyces griseus, UniProt Q54237)
T1 construct: gene orf4; full-length ORF (987 bp, 328 residues, 33721 Da) in pQE30, expressed in E. coli M15(pREP4); unpurified expressed cells; 34 kDa band on SDS-PAGE
T1 sequence (Q54237 1-328): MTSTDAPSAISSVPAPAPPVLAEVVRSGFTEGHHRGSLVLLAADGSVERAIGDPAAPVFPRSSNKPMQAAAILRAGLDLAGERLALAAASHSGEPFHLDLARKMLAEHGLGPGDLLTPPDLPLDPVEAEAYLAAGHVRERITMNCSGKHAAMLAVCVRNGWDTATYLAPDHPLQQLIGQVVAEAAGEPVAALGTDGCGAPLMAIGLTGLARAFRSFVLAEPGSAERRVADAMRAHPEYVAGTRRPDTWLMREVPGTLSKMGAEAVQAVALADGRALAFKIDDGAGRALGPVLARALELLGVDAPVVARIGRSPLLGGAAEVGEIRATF
Experiment: ammonia release, Nesslerization
Format: cell-based
Conditions: recombinant E. coli M15 expressed cells compared with control cells; host background activity present

NC(=O)C[C@H](N)C(=O)O [L-asparagine]
ammonia release, Nesslerization: The expression of asparaginase biosynthetic gene was confirmed by Nesslerization assay
